Values of other authors in paper PMC3545186 (Biochemical Pharmacology, 2013).

Key:
[1] = Asian breast cancer patient population; cited from earlier work
[2] = cited from earlier work

| SMILES | exposure in individuals homozygous mutant for ABCB1 C1236T, G2677T/A and C3435T [1] | higher plasma concentrations in Abcb1a/1b knockout mice compared to wild type (WT) mice [2] |
| --- | --- | --- |
| COc1cccc2c1C(=O)c1c(O)c3c(c(O)c1C2=O)C[C@@](O)(C(=O)CO)C[C@@H]3O[C@H]1C[C@H](N)[C@H](O)[C@H](C)O1 [doxorubicin] | significantly higher exposure | – |
| COc1cc([C@@H]2c3cc4c(cc3[C@@H](O[C@@H]3O[C@@H]5CO[C@@H](C)O[C@H]5[C@H](O)[C@H]3O)[C@H]3COC(=O)[C@H]23)OCO4)cc(OC)c1O [etoposide] | – | 1.4 fold |
